From patent US12121606B2, “Methods and compositions for improving skin” (L'OREAL, priority 2021, dated 2024) come the findings set out here.

The subject of this assay is in vitro skin samples (EPISKIN). The assay can be described thus: In vitro skin samples after fractional laser procedure, wound healing by OCT imaging. The conditions noted are these: application after the fractional laser procedure. It counts as cell-based. On the procedure: The benefits of applying the Composition 4 to skin after a procedure that reduces the barrier function of skin was evaluated in vitro using samples generated by the EPISKIN™ group. Composition 4 comprised 0.5 wt. % of acetyl trifluoromethylphenyl valylglycine and 2 wt. % ethanol with the remainder being water, with all weight percentages based on the total weight of the formulation. A comparative composition (Comparative Composition A) containing transforming growth factor alpha (“TGF-α”) was also evaluated as a comparison to the Composition 4.
Specifically, a fractional laser procedure that is typical of laser resurfacing procedures was applied to the in vitro skin samples. The in vitro skin samples were characterized using non-invasive imaging analysis to determine the wound morphology of the in vitro skin samples. The kinetics and quantification of wound healing after the laser treatment was evaluated using optical coherence tomography (OCT). The optical measurements were performed at seven time points over the culture period. This was achieved using an OCT system produced by Thorlabs (Newton, N.J., USA) with an axial resolution of 8 μm.
Composition 4 and Comparative Composition A were applied by adding 10 uL onto in vitro skin samples after the fractional laser procedure. […]

With `CC(=O)N(c1cccc(C(F)(F)F)c1)C(C(=O)NCC(=O)O)C(C)C` (stereo not shown) [acetyl trifluoromethylphenyl valylglycine], the “regeneration of the epidermis” value is “enhanced regeneration of the epidermis”.
